Test results published in ChEMBL document CHEMBL1127066, “Discovery and structure-activity relationship of a series of 1-carba-1-dethiacephems exhibiting activity against methicillin-resistant Staphylococcus aureus” (J Med Chem, 1993).

Columns and labels:
Type in all cases: functional
Escherichia coli = experiment: In vitro evaluation of antimicrobial activity against Escherichia coli EC14 strain
Pseudomonas aeruginosa [1] = experiment: Antimicrobial activity against Pseudomonas PS18 strain
[2] = tested on: Staphylococcus epidermidis; experiment: In vitro antimicrobial activity against Staphylococcus epidermidis 222 strain
Staphylococcus aureus [3] = experiment: In vitro antimicrobial activity against Staphylococcus aureus S13E strain
Streptococcus pneumoniae = experiment: In vitro antimicrobial activity against Streptococcus pneumoniae PARK strain
Staphylococcus aureus [4] = experiment: In vitro antimicrobial activity against Staphylococcus aureus X1.1 strain
Klebsiella = experiment: In vitro antimicrobial activity against Klebsiella X26 strain
[5] = tested on: Staphylococcus epidermidis; experiment: In vitro antimicrobial activity against Staphylococcus epidermidis 270 strain
Enterobacter cloacae = experiment: In vitro evaluation of antimicrobial activity against Enterobacter cloacae EB5 strain
Staphylococcus aureus [6] = experiment: In vitro antimicrobial activity against Staphylococcus aureus X400 strain
Haemophilus influenzae = experiment: In vitro antimicrobial activity against Haemophilus influenzae C.L. strain
Pseudomonas aeruginosa [7] = experiment: In vitro antimicrobial activity against Pseudomonas X239 strain

Row | Compound | MIC (Escherichia coli) | MIC (Pseudomonas aeruginosa [1]) | MIC [2] | MIC (Staphylococcus aureus [3]) | MIC (Streptococcus pneumoniae) | MIC (Staphylococcus aureus [4]) | MIC (Klebsiella) | MIC [5] | MIC (Enterobacter cloacae) | MIC (Staphylococcus aureus [6]) | MIC (Haemophilus influenzae) | MIC (Pseudomonas aeruginosa [7])
1 | Nc1nc(/C(=N\OCCF)C(=O)N[C@@H]2C(=O)N3C(C(=O)[O-])=C(Sc4ncccn4)CC[C@H]23)cs1.[Na+] | 0.125 µg/mL | > 128 µg/mL | 4 µg/mL | 32 µg/mL | 0.03 µg/mL | 2 µg/mL | 0.015 µg/mL | 8 µg/mL | 1 µg/mL | 128 µg/mL | 0.03 µg/mL | > 128 µg/mL
2 | Nc1nc(/C(=N\OCCF)C(=O)N[C@@H]2C(=O)N3C(C(=O)[O-])=C(SC4=NCCS4)CC[C@H]23)cs1.[Na+] | 0.125 µg/mL | 64 µg/mL | 1 µg/mL | 16 µg/mL | < 0.008 µg/mL | 0.5 µg/mL | 0.015 µg/mL | 2 µg/mL | 1 µg/mL | 64 µg/mL | < 0.008 µg/mL | < 128 µg/mL
3 | Cn1nnnc1SC1=C(C(=O)[O-])N2C(=O)[C@@H](NC(=O)/C(=N/OCCF)c3csc(N)n3)[C@H]2CC1.[Na+] | 0.06 µg/mL | > 128 µg/mL | 2 µg/mL | 128 µg/mL | 0.015 µg/mL | 0.5 µg/mL | < 0.008 µg/mL | 4 µg/mL | 0.5 µg/mL | > 128 µg/mL | 0.015 µg/mL | 16 µg/mL
4 | Nc1nc(/C(=N\OCCF)C(=O)N[C@@H]2C(=O)N3C(C(=O)[O-])=C(Sc4nc(C(=O)O)cs4)CC[C@H]23)cs1.[Na+] | 0.25 µg/mL | 128 µg/mL | 4 µg/mL |  | 0.015 µg/mL | 2 µg/mL | 0.25 µg/mL | 8 µg/mL | 4 µg/mL | > 128 µg/mL | 0.015 µg/mL | > 128 µg/mL
5 | Nc1nc(/C(=N\OCCF)C(=O)N[C@@H]2C(=O)N3C(C(=O)[O-])=C(Sc4snc5ccccc45)CC[C@H]23)cs1.[Na+] | 0.25 µg/mL | 16 µg/mL | 0.5 µg/mL | 32 µg/mL | < 0.008 µg/mL | 0.125 µg/mL | 0.03 µg/mL | 2 µg/mL | 0.5 µg/mL | 64 µg/mL | 0.03 µg/mL | 32 µg/mL
6 | CC(=O)c1sc(SC2=C(C(=O)[O-])N3C(=O)[C@@H](NC(=O)/C(=N/OCCF)c4csc(N)n4)[C@H]3CC2)nc1C.[Na+] | 1 µg/mL | > 128 µg/mL | 2 µg/mL | 32 µg/mL | < 0.008 µg/mL | 0.5 µg/mL | 0.125 µg/mL | 8 µg/mL | 8 µg/mL | 128 µg/mL | 0.06 µg/mL | > 128 µg/mL
7 | Cc1nc(SC2=C(C(=O)[O-])N3C(=O)[C@@H](NC(=O)/C(=N/OCCF)c4csc(N)n4)[C@H]3CC2)sc1C.[Na+] | 0.5 µg/mL | 64 µg/mL | 1 µg/mL | 4 µg/mL | < 0.008 µg/mL | 0.5 µg/mL | 0.06 µg/mL | 2 µg/mL | 4 µg/mL | 32 µg/mL | 0.015 µg/mL | 8 µg/mL
8 | Nc1nc(/C(=N\OCCF)C(=O)N[C@@H]2C(=O)N3C(C(=O)[O-])=C(Sc4nc5ccccc5o4)CC[C@H]23)cs1.[Na+] | 0.25 µg/mL | 32 µg/mL | 1 µg/mL | 2 µg/mL | < 0.008 µg/mL | 0.125 µg/mL | 0.015 µg/mL | 2 µg/mL | 1 µg/mL | 64 µg/mL | 0.03 µg/mL | 32 µg/mL
9 | Nc1nc(/C(=N\OCCF)C(=O)N[C@@H]2C(=O)N3C(C(=O)[O-])=C(Sc4nc5c(=O)[nH]c(=O)[nH]c5s4)CC[C@H]23)cs1.[Na+] | 0.06 µg/mL | 64 µg/mL | 2 µg/mL | 16 µg/mL | < 0.008 µg/mL | 2 µg/mL | 0.06 µg/mL | 8 µg/mL | 1 µg/mL | 128 µg/mL | < 0.008 µg/mL | > 128 µg/mL
10 | Nc1ccc2nc(SC3=C(C(=O)[O-])N4C(=O)[C@@H](NC(=O)/C(=N/OCCF)c5csc(N)n5)[C@H]4CC3)sc2c1.[Na+] | 0.25 µg/mL | 128 µg/mL | 1 µg/mL | 4 µg/mL | < 0.008 µg/mL | 0.25 µg/mL | 0.03 µg/mL | 1 µg/mL | 2 µg/mL | 16 µg/mL | 0.03 µg/mL | > 128 µg/mL
11 | Nc1nc(/C(=N\OCCF)C(=O)N[C@@H]2C(=O)N3C(C(=O)[O-])=C(Sc4nnc(O)c(O)n4)CC[C@H]23)cs1.[Na+] | 0.06 µg/mL | > 128 µg/mL | 8 µg/mL |  | 0.06 µg/mL | 4 µg/mL | 0.06 µg/mL | 32 µg/mL | 0.5 µg/mL | > 128 µg/mL | 0.03 µg/mL | > 128 µg/mL
12 | Nc1nc(/C(=N\OCCF)C(=O)N[C@@H]2C(=O)N3C(C(=O)[O-])=C(Sc4ccncc4)CC[C@H]23)cs1.[Na+] | 0.06 µg/mL | 64 µg/mL | 1 µg/mL | 32 µg/mL | < 0.008 µg/mL | 0.5 µg/mL | 0.015 µg/mL | 2 µg/mL | 0.5 µg/mL | 64 µg/mL | 0.015 µg/mL | 16 µg/mL
13 | CCOc1ccc2nc(SC3=C(C(=O)[O-])N4C(=O)[C@@H](NC(=O)/C(=N/OCCF)c5csc(N)n5)[C@H]4CC3)sc2c1.[Na+] | 1 µg/mL | 128 µg/mL | 1 µg/mL | 8 µg/mL | < 0.008 µg/mL | 0.25 µg/mL | 0.06 µg/mL | 0.5 µg/mL | 4 µg/mL | 8 µg/mL | 0.125 µg/mL | > 128 µg/mL
14 | Cc1csc(SC2=C(C(=O)[O-])N3C(=O)[C@@H](NC(=O)/C(=N/OCCF)c4csc(N)n4)[C@H]3CC2)n1.[Na+] | 0.25 µg/mL | 32 µg/mL | 0.5 µg/mL | 4 µg/mL | < 0.008 µg/mL | 0.5 µg/mL | < 0.008 µg/mL | 4 µg/mL | 2 µg/mL | 64 µg/mL | < 0.008 µg/mL | 64 µg/mL
15 | Cn1ccnc1SC1=C(C(=O)[O-])N2C(=O)[C@@H](NC(=O)/C(=N/OCCF)c3csc(N)n3)[C@H]2CC1.[Na+] | 0.5 µg/mL | > 128 µg/mL | 8 µg/mL |  | < 0.008 µg/mL | 4 µg/mL | 0.06 µg/mL | 32 µg/mL | 4 µg/mL | > 128 µg/mL | 0.03 µg/mL | > 128 µg/mL
16 | Nc1nc(/C(=N\OCCF)C(=O)N[C@@H]2C(=O)N3C(C(=O)[O-])=C(Sc4nc(C(=O)OCc5ccccc5)cs4)CC[C@H]23)cs1.[Na+] | 0.25 µg/mL | 64 µg/mL | 0.5 µg/mL | 8 µg/mL | < 0.008 µg/mL | 0.25 µg/mL | 0.015 µg/mL | 2 µg/mL | 2 µg/mL | 32 µg/mL | 0.03 µg/mL | 128 µg/mL
17 | Nc1nc(/C(=N\OCCF)C(=O)N[C@@H]2C(=O)N3C(C(=O)[O-])=C(Sc4nccnc4N)CC[C@H]23)cs1.[Na+] | 0.125 µg/mL | 16 µg/mL | 1 µg/mL | 32 µg/mL | < 0.008 µg/mL | 0.5 µg/mL | 0.015 µg/mL | 4 µg/mL | 1 µg/mL | > 128 µg/mL | 0.015 µg/mL | 128 µg/mL
18 | Nc1nc(/C(=N\OCCF)C(=O)N[C@@H]2C(=O)N3C(C(=O)[O-])=C(Sc4ccccc4)CC[C@H]23)cs1.[Na+] | 0.5 µg/mL | 64 µg/mL | 2 µg/mL | 64 µg/mL | 0.015 µg/mL | 0.5 µg/mL | 0.03 µg/mL | 2 µg/mL | 4 µg/mL | 128 µg/mL | 0.03 µg/mL | 128 µg/mL
19 | CCCCOC(=O)c1csc(SC2=C(C(=O)[O-])N3C(=O)[C@@H](NC(=O)/C(=N/OCCF)c4csc(N)n4)[C@H]3CC2)n1.[Na+] | 0.5 µg/mL | 128 µg/mL | 1 µg/mL | 16 µg/mL | < 0.008 µg/mL | 0.5 µg/mL | 0.03 µg/mL | 4 µg/mL | 4 µg/mL | 64 µg/mL | 0.03 µg/mL | > 128 µg/mL
20 | Nc1nc(/C(=N\OCCF)C(=O)N[C@@H]2C(=O)N3C(C(=O)[O-])=C(Sc4nc5ccccc5[nH]4)CC[C@H]23)cs1.[Na+] | 0.125 µg/mL | 32 µg/mL | 2 µg/mL | 16 µg/mL | < 0.008 µg/mL | 2 µg/mL | 0.015 µg/mL | 8 µg/mL | 1 µg/mL | 128 µg/mL | 0.015 µg/mL | 32 µg/mL
21 | COC(=O)c1sc(SC2=C(C(=O)[O-])N3C(=O)[C@@H](NC(=O)/C(=N/OCCF)c4csc(N)n4)[C@H]3CC2)nc1C.[Na+] | 2 µg/mL | > 128 µg/mL | 2 µg/mL | 16 µg/mL | < 0.008 µg/mL | 0.25 µg/mL | 0.125 µg/mL | 8 µg/mL | 8 µg/mL | 128 µg/mL | 0.06 µg/mL | > 128 µg/mL
22 | Nc1nc(/C(=N\OCCF)C(=O)N[C@@H]2C(=O)N3C(C(=O)[O-])=C(Sc4cccc[n+]4[O-])CC[C@H]23)cs1.[Na+] | 0.125 µg/mL | 128 µg/mL | 2 µg/mL | 64 µg/mL | 0.15 µg/mL | 2 µg/mL | 0.06 µg/mL | 8 µg/mL | 2 µg/mL | 128 µg/mL | 0.015 µg/mL | > 128 µg/mL
23 | CCOc1nn(C)c(SC2=C(C(=O)[O-])N3C(=O)[C@@H](NC(=O)/C(=N/OCCF)c4csc(N)n4)[C@H]3CC2)nc1=O.[Na+] | 0.5 µg/mL | > 128 µg/mL | 4 µg/mL | 128 µg/mL | 0.03 µg/mL | 0.5 µg/mL | 0.06 µg/mL | 16 µg/mL | 2 µg/mL | > 128 µg/mL | 0.03 µg/mL | 128 µg/mL
